In patent publication US20210038537A1, “Emodin for Use in Regulating Expression of Proteins Involved in Inflammation” (UNIVERSITY OF SOUTH CAROLINA, priority 2018, published 2021):

How the values were obtained:
[1] = tested on: azoxymethane (AOM)/dextran sodium sulfate (DSS) mouse model of colorectal cancer; assay: AOM/DSS mouse model of colorectal cancer, tumor number; format: in vivo; settings: emodin 40 mg/Kg via gavage three days a week for 10 weeks; vehicle approximately 7 tumors
Method: Effects of dietary emodin on tumorigenesis were examined in an azoxymethane (AOM)/dextran sodium sulfate (DSS) mouse model of colorectal cancer. Colorectal cancer was developed in mice according to known methods. Briefly, mice received a single injection of AOM (10 mg/Kg) followed by 2 cycles of DSS (2% in the water for 1 week followed by 2 weeks of plain water) as previously described (see, e.g., Tanaka T. Colorectal carcinogenesis: Review of human and experimental animal studies. J Carcinog 2009; 8:5; Enos R T, Velazquez K T, McClellan J L, et al. High-fat diets rich in saturated fat protect against azoxymethane/dextran sulfate sodium-induced colon cancer. American journal of physiology Gastrointestinal and liver physiology 2016; 310:G906-19).
The mice were administered either emodin or vehicle treatment (n=12) via gavage at a dose of 40 mg/Kg three days a week for the duration of the AOM/DSS protocol (10 weeks).

[2] = tested on: 5FU toxicity; assay: Functional measures and survival following 5FU administration in a non-disease model; format: in vivo, C57BL/6 mice
Method: Given the positive effects of emodin on inflammation associated with 5FU toxicity, use of emodin was further examined to determine any improvement in quality of life measures with emodin/5FU treatment vs. 5FU treatment alone. The effects of emodin on functional measures and survival following 5FU administration were examined in a non-disease model.
C57BL/6 mice were assigned to either emodin (40 mg/kg 3×per week; n=9) or vehicle treatment (n=10). 5FU was administered at 40 mg/kg in cycle 1 and 20 mg/kg in cycles 2 and 3. Emodin was administered 3 times per week for the duration of the 5FU treatment.
Following the final 5FU cycle, mice underwent a mechanical stimulation test and a run to fatigue.

[3] = tested on: pro-tumor markers (Hif1a, IL-10, IL-6 and MCP-1); assay: Pro-tumor marker expression in MC38 tumors; format: in vivo, mouse; settings: emodin 40 mg/Kg
Method: To test the effects of emodin on TAMs in colorectal cancer, macrophage infiltration into MC38 colon tumors following control or emodin (40 mg/Kg) treatment (3 times a week for 4 weeks) was examined using flow cytometry. Tumors of similar sizes were selected so that emodin effects could be determined independent of any changes in tumor size. […] The effects of emodin on select pro-tumor markers (Hif1a, IL-10, IL-6 and MCP-1) in a tumor was also examined.

[4] = tested on: MCP-1, TNFα, and NOS2 expression; assay: 5FU-induced colon inflammation, inflammatory gene expression by qPCR in a non-disease model; format: in vivo, C57BL/6 mice; settings: 5FU 3 cycles (40 then 20 mg/Kg) plus emodin 40 mg/Kg 3 times per week; vs 5FU plus vehicle
Method: FIG. 6 illustrates the inhibition of 5FU-induced colon inflammation. 5FU treated mice were administered emodin (40 mg/kg 3×wk) or vehicle treatment (n=5). A non-disease phosphate buffer saline (PBS) group was used as a control (n=5). Following 5FU treatment inflammatory mediators were analyzed in the colon via q PCR. *p<0.05.
The effects of dietary emodin on colon inflammation following 5FU administration were examined in a non-disease model. C57BL/6 mice were assigned to either emodin or control treatment (n=5). […] 5FU or PBS was administered daily for 5-days followed by a 9-day recovery (×3 cycles). The dose of 5FU was 40 mg/Kg in cycle 1 and 20 mg/Kg in cycles 2 and 3. Emodin (40 mg/Kg) was administered 3 times per week for the duration of the 5FU treatment.
Given the role of inflammation in chemotherapy-induced toxicity, an analysis of inflammatory genes from the intestines was performed.

[5] = tested on: F4/80+ cells (macrophages) in MC38 colon tumors; assay: Macrophage infiltration into MC38 colon tumors by flow cytometry; format: in vivo, mouse; settings: emodin 40 mg/Kg 3 times a week for 4 weeks, tumors of similar sizes
Method: To test the effects of emodin on TAMs in colorectal cancer, macrophage infiltration into MC38 colon tumors following control or emodin (40 mg/Kg) treatment (3 times a week for 4 weeks) was examined using flow cytometry. Tumors of similar sizes were selected so that emodin effects could be determined independent of any changes in tumor size.

[6] = tested on: MC38 tumors; assay: MC38 mouse model of adenocarcinoma, tumor weight; format: in vivo; settings: emodin 40 mg/Kg via gavage three days a week for 4 weeks; vehicle approximately 1,200 mg
Method: The MC38 mouse model of adenocarcinoma was used. Mice (n=4/group) were administered emodin or vehicle treatment via gavage at a dose of 40 mg/Kg three days a week for 4 weeks. Following the 4-week treatment period tumors in the vehicle treated group weighed approximately 1,200 mg, whereas those in the emodin treated group weighed approximately 400 mg.

[7] = tested on: Apc^min/+ model of intestinal tumorigenesis; assay: Apc^min/+ model of intestinal tumorigenesis, polyp number; format: in vivo, mouse; settings: emodin 40 mg/Kg via gavage three days a week for 12 weeks; vehicle approximately 75 polyps
Method: The Apc^min/+ model of intestinal tumorigenesis was utilized to test anti-tumor effects of emodin. Mice were administered emodin or vehicle treatment (n=7/group) via gavage at a dose of 40 mg/Kg three days a week for 12 weeks. Results are illustrated in FIG. 2. As indicated, the vehicle treated group had approximately 75 polyps per mouse, whereas emodin treated mice had less than 40 polyps per mouse.

[8] = following the final 5FU cycle, emodin 40 mg/kg 3x per week

## Cc1cc(O)c2c(c1)C(=O)c1cc(O)cc(O)c1C2=O [emodin, Emodin]
[1]
  number of tumors following the 10-week AOM/DSS protocol: approximately 5 tumors
[2]; 3 cycles of 5FU plus emodin 40 mg/kg 3x per week
  body weight loss associated with 5FU treatment: prevented the body weight loss
[2]; 3 cycles of 5FU plus emodin 40 mg/kg 3x per week, vehicle group 50%
  survival of the 5FU regime: 100%
[2]; [8]
  5FU induced fatigability (run to fatigue): offset
  5FU induced sensitivity to pain (mechanical stimulation test): offset
[3]
  relative expression of Hif1a in tumor: decrease in relative marker expression
  relative expression of IL-6 in tumor: decrease in relative marker expression
  relative expression of IL-10 in tumor: decrease in relative marker expression
  relative expression of MCP-1 in tumor: decrease in relative marker expression
[4]
  MCP-1 expression in colon/intestines after 5FU: decrease
  NOS2 expression in colon/intestines after 5FU: decrease
  TNFα expression in colon/intestines after 5FU: decrease
[5]
  F4/80+ cells (macrophages) in colon tumors: significantly reduce
[6]
  tumor weight: approximately 400 mg
[7]
  polyps per mouse: less than 40 polyps per mouse
